From BigSolDB 2.1

Cn1nnc2c(C(N)=O)ncn2c1=O
solubility (mole fraction)
Conditions | 273.15 K | 278.15 K | 283.15 K | 288.15 K | 293.15 K | 298.15 K | 303.15 K | 308.15 K | 313.15 K | 318.15 K
in ethanol | 6.58e-05 | 7.89e-05 | 9.48e-05 | 0.000115 | 0.000136 | 0.00016 | 0.000188 | 0.000225 | 0.000269 | 0.000313
in ethyl acetate | 8.03e-05 | 9.96e-05 | 0.00012 | 0.000144 | 0.000173 | 0.000206 | 0.000237 | 0.000277 | 0.000319 | 0.000371
in isopropanol | 2.2e-05 | 2.69e-05 | 3.4e-05 | 4.26e-05 | 5.17e-05 | 6.38e-05 | 7.8e-05 | 9.41e-05 | 0.000116 | 0.000143
in methanol | 0.000174 | 0.000217 | 0.00027 | 0.000327 | 0.00039 | 0.000459 | 0.000536 | 0.000621 | 0.00072 | 0.000838
in n-propanol | 4.28e-05 | 5.53e-05 | 6.99e-05 | 8.65e-05 | 0.000107 | 0.00013 | 0.000157 | 0.000188 | 0.000226 | 0.000271
